From patent US11999747B2, “Furoquinolinediones as inhibitors of TDP2” (THE UNITED STATES OF AMERICA, AS REPRESENTED BY THE …, priority 2015, dated 2024)

Tests used:
recombinant human TDP2 = molecular target: T1, recombinant human TDP2 (Homo sapiens, UniProt O95551); assay: Recombinant Tdp2 assay (gel-based, 18-mer ssDNA substrate); assay type: biochemical; details: recombinant human TDP2, 25 pM, 15 min, room temperature; read-out: REC TDP2
T1 sequence (O95551 1-362): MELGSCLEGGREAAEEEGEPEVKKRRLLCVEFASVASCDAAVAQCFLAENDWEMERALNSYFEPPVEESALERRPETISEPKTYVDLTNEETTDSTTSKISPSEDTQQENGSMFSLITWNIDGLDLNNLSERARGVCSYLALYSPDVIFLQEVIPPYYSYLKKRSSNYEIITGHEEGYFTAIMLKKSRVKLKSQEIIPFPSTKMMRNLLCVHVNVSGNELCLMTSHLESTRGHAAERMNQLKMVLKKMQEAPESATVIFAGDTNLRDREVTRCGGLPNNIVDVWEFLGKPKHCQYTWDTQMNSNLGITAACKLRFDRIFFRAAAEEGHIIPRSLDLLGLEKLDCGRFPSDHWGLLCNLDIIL
Experimental: TDP2 reactions were carried out as described previously (Example 52) with the following modifications. The 18-mer single-stranded oligonucleotide DNA substrate (α^32P-cordycepin-3′-labeled) was incubated at 1 nM with 25 pM recombinant human TDP2 in the absence or presence of inhibitor for 15 min at room temperature in a buffer containing 50 mM Tris-HCl, pH 7.5, 80 mM KCl, 5 mM MgCl2, 0.1 mM EDTA, 1 mM DTT, 40 μg/mL BSA, and 0.01% Tween 20. Reactions were terminated and treated similarly to WCE and recombinant TDP1 reactions (see Examples 52 and 53).
(§1) All compounds were prepared by the methods shown in Examples 1 to 50. Routine changes in starting materials and reaction conditions, readily apparent to those of skill in the art, were used to make the particular compounds disclosed in Table 1. […] A standard Tdp2 inhibition assay, such as the assay of Example 53, is used to determine the IC50's for the compounds. LC methods are given in the General Methods section.

human TDP2 (hTDP2) = molecular target: T2, human TDP2 (hTDP2) (Homo sapiens, UniProt O95551); assay: Whole cell extract Tdp2 assay (DT40 TDP1-/- cells complemented with human TDP2); assay type: biochemical; details: whole cell extract 4 μg/mL of DT40 cells expressing hTDP2, 15 min, room temperature; read-out: WCE hTDP2
T2 construct: expressed in transfected cells; host or cells: DT40 (chicken) TDP1-/- knockout cells complemented with human TDP2; whole cell extract
T2 sequence (O95551 1-362): T1 sequence (O95551 1-362)
Experimental: DT40 knockout cells (1×10^7) for Tdp1 (TDP1−/−) complemented with human TDP2 (hTDP2) were collected, washed, and centrifuged. Cell pellets were then lysed and stored similarly to hTDP1 extracts (see above). The 18-mer single-stranded oligonucleotide was incubated at 1 nM with 4 μg/mL of whole cell extracts in the absence or presence of inhibitor for 15 min at room temperature in the WCE buffer containing 50 mM Tris HCl, pH 7.5, 80 mM KCl, 5 mM MgCl2, 2 mM EDTA, 1 mM DTT, 40 μg/mL BSA, and 0.01% Tween-20. Reactions were terminated by the addition of 1 volume of gel loading buffer [99.5% (v/v) formamide, 5 mM EDTA, 0.01% (w/v) xylene cyanol, and 0.01% (w/v) bromophenol blue]. Samples were then treated and run similarly to the hTDP1 whole cell extract (Example 51).
as §1

SMILES	IC50 (recombinant human TDP2) [µM]	IC50 (human TDP2 (hTDP2)) [µM]
CCOC(=O)c1c(C)oc2c1C(=O)c1cccnc1C2=O [Compound 1, Ethyl 2-methyl-4,9-dioxo-4,9-dihydrofuro[3,2-g]quinoline-3-carboxylate]	37 to 111	37 to 111
CCOC(=O)c1c(C)oc2c1C(=O)c1ccccc1C2=O [Compound 3, Ethyl 2-methyl-4,9-dioxo-4,9-dihydronaphtho[2,3-b]furan-3-carboxylate]	37 to 111	–
CCOC(=O)C1=C(C)C(C(=O)OCC)C2=C1C(=O)c1ncccc1C2=O (centres unmarked) [Compound 4]	> 111	–
CCOC(=O)c1c2c(n(C)c1C)C(=O)c1ncccc1C2=O [Compound 5]	> 111	–
CNC1=C(Cl)C(=O)c2ncccc2C1=O [Compound 6]	> 111	–
CC(=O)c1c(C)oc2c1C(=O)c1cccnc1C2=O [Compound 8, 3-acetyl-2-methylfuro[3,2-g]quinoline-4,9-dione]	> 111	–
Cc1oc2c(c1C(=O)OCCCO)C(=O)c1ncccc1C2=O [Compound 11]	12 to 37	1 to 12
CCNC(=O)c1c(C)oc2c1C(=O)c1ncccc1C2=O [Compound 20]	> 111	–
CCOC(=O)c1c(CC)oc2c1C(=O)c1ncccc1C2=O [Compound 65]	37 to 111	–
CCOC(=O)c1c(CC)oc2c1C(=O)c1ncccc1C2=O [Compound 66]	12 to 37	–
CC(C)(C)OC(=O)Nc1ccc(OC(=O)c2coc3c2C(=O)c2ncccc2C3=O)cc1 [Compound 69]	12 to 37	–
CCOC(=O)c1c(CN2CCN(C(C)=O)CC2)oc2c1C(=O)c1ncccc1C2=O [Compound 71]	12 to 37	–
CCOC(=O)c1c(CN2CCOCC2)oc2c1C(=O)c1ncccc1C2=O [Compound 72]	1 to 12	–
CCOC(=O)c1noc2c1C(=O)c1ncccc1C2=O [Compound 73]	≤ 1	–
CCOC(=O)c1c(C(Br)Br)oc2c1C(=O)c1ncccc1C2=O [Compound 74]	12 to 37	–

Now from value to compound:

IC50 (recombinant human TDP2) [µM]	IC50 (human TDP2 (hTDP2)) [µM]	SMILES
1 to 12	12 to 37	CCOC(=O)c1c(C)oc2c1C(=O)c1ncccc1C2=O [Compound 2, Ethyl 2-methyl-4,9-dioxo-4,9-dihydrofuro[2,3-g]quinoline-3-carboxylate]
37 to 111	37 to 111	Cc1oc2c(c1C(=O)O)C(=O)c1ncccc1C2=O [Compound 7, 2-methyl-4,9-dioxo-4,9-dihydrofuro[2,3-g]quinoline-3-carboxylic acid]
37 to 111	37 to 111	CC(=O)c1c(C)oc2c1C(=O)c1ncccc1C2=O [Compound 9, 3-acetyl-2-methylfuro[2,3-g]quinoline-4,9-dione]
12 to 37	1 to 12	Cc1oc2c(c1C(=O)OCCO)C(=O)c1ncccc1C2=O [Compound 10, 2-hydroxyethyl-2-methyl-4,9-dioxo-4,9-dihydrofuro[2,3-g]quinoline-3-carboxylate]
12 to 37	1 to 12	Cc1oc2c(c1C(=O)Oc1cccc(O)c1)C(=O)c1ncccc1C2=O [Compound 12]
12 to 37	1 to 12	Cc1oc2c(c1C(=O)Oc1ccccc1O)C(=O)c1ncccc1C2=O [Compound 13]
> 111	–	Cc1oc2c(c1C(=O)Nc1ccccc1)C(=O)c1ncccc1C2=O [Compound 16]
> 111	–	Cc1oc2c(c1C(=O)Nc1cccc(Cl)c1)C(=O)c1ncccc1C2=O [Compound 17]
> 111	–	Cc1oc2c(c1C(=O)Nc1ccccc1O)C(=O)c1ncccc1C2=O [Compound 18]
> 111	–	COc1ccc(NC(=O)c2c(C)oc3c2C(=O)c2ncccc2C3=O)cc1 [Compound 19]
> 111	–	Cc1oc2c(c1C(=O)Nc1cccc(O)c1)C(=O)c1ncccc1C2=O [Compound 21]
> 111	–	Cc1oc2c(c1C(=O)Oc1ccc3ccccc3c1)C(=O)c1ncccc1C2=O [Compound 25]
12 to 37	–	C=CC(=O)Nc1cccc(OC(=O)c2c(C)oc3c2C(=O)c2ncccc2C3=O)c1 [Compound 67]
12 to 37	–	C=CC(=O)Nc1ccc(OC(=O)c2c(C)oc3c2C(=O)c2ncccc2C3=O)cc1 [Compound 68]
1 to 12	–	Cc1oc2c(c1C(=O)Oc1ccc(N)cc1)C(=O)c1ncccc1C2=O [Compound 70]
